Values joined by “and” are separate entries in the source; they are usually repeats but may differ in a detail not shown here. Equal values may be shown once.
What was measured:
[1] = system: WT HeLa cells expressing TDP-4FL; test: Immunofluorescence of TDP-4FL inclusion morphology, WT HeLa; assay type: cell-based; details: for TDP-4FL inclusion size and morphology upon proteasome inhibition: 4 μM MG132, 1 μM ixazomib or 1 μM epoxomicin, 3 or 6 hours
Method: HeLa Cells were plated onto glass coverslips and transfected with TDP-4FL using Fugene HD for 24 hours. Cells were fixed with 4% paraformaldehyde (Electron Microscopy Sciences), permeabilized with 0.1% Triton-X (Thermo Fisher Scientific), and blocked with 2% FBS DPBS. Primary antibodies were diluted in 2% FBS DPBS. Cells were stained with 300 nM DAPI, and coverslips were mounted onto glass slides using ProLong Glass Antifade Mountant (Thermo Fisher Scientific). Confocal images were obtained using a Leica TCS SPE laser scanning confocal microscope.
(A) High power magnification immunofluorescence confocal images of HeLa cells expressing TDP-4FL stained for myc-TDP (green) Scale bar, 5 µm. […]
(C) Representative confocal microscopy immunofluorescence confocal images of HeLa cells […]
yellow represent cells that were categorized as anisosome morphology. Nuclei outline in white represent cells that were categorized as aggregate morphology. Cells with approximately more than 50% anisosome inclusions were categorized as anisosome morphology whereas cells with approximately more than 50% aggregate-like inclusions were categorized as aggregate morphology. Binucleate cells were excluded from the total counts. Scale bar, 10 µm.
(§1) (1 picture or pasted object on this page, not shown here)

recombinant WT VCP [2] = target: T1, recombinant WT VCP (Mus musculus, UniProt Q01853); test: Kinase-Glo ATPase assay, recombinant WT VCP; assay type: biochemical; details: for ATP consumed: WT VCP no UN
T1 construct: in the full-length recombinant VCP; His (N); made in house; host or cells: Escherichia coli BL21-CodonPlus (DE3)-RIL
T1 sequence (Q01853 whole entry): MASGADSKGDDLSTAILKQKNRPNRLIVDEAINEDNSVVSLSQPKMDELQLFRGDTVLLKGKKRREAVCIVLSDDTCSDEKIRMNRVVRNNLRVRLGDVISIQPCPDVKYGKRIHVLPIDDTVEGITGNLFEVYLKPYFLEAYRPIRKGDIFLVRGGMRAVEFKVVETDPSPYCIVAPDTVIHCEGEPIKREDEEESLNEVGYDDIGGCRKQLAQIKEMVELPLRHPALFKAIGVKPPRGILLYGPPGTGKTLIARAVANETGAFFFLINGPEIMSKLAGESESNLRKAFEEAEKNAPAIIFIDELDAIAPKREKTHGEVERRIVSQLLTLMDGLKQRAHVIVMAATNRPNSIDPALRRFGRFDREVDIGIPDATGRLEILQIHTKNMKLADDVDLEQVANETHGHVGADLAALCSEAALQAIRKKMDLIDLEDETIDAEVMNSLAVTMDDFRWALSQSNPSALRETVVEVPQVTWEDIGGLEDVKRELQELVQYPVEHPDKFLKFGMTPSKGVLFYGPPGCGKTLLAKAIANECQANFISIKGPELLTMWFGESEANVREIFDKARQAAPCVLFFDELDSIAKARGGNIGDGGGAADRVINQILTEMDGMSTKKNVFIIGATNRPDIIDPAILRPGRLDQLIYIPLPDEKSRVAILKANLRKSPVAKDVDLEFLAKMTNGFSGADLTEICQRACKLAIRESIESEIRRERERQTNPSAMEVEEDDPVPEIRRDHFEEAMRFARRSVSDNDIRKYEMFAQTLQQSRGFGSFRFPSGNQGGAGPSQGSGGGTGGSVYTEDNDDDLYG
Method: (§2) Experiments with varied activator concentration and screening were measured using the Kinase-Glo Luminescent Kinase Assay (Promega). Reactions were incubated at 25°C for 1 hour then reduced to 4°C in a thermocycler consisting of 50 nM of recombinant VCP with or without 50 nM UFD1/NPLOC4 in 50 uL ATPase buffer (25 mM HEPES, pH 7.5, 100 mM NaCl, 10 mM MgCl2) at 2% DMSO with 62.5 μM ATP and a range of activator concentrations (Gibco, Sigma-Aldrich). Equal volumes of reaction and Kinase-Glo reagent were incubated for 20 minutes at room temperature in a 96 well white flat bottom plate (Corning). Luminescence was measured in a microplate reader (Spark 20M, Tecan).
(§3) Experiments with varied compound concentration were fit to a 3-parameter dose curve with asymmetric profile likelihood 95% confidence intervals in GraphPad Prism 9 (GraphPad). Experiments with varied ATP concentration were fit to a Michaelis-Menten model with asymmetric profile likelihood 95% confidence intervals. Significance was determined for experiments with fixed compound or fixed ATP concentration using a linear mixed-effects model.

[3] = system: WT HeLa cells expressing GFP-TDP-4FL; test: Flow cytometry of GFP-TDP-4FL integrated fluorescence, WT HeLa; assay type: cell-based; details: for Integrated Fluorescence WT (Normalized to CHX): replicate values
Method: Drug treatments were performed on neurons 7 days after lentiviral transduction and 14 days after neuronal induction. HeLa cells were collected using trypsin and pelleted at 1000g for 3 minutes. Cell pellets were resuspended in colorless DMEM (Invitrogen) supplemented with 2% FBS and filtered through a BD tube with cell strainer (BD Biosciences) for flow cytometry analysis on LSR II (BD Biosciences). Data analysis was performed on FlowJo v10 software. Integrated fluorescence intensity was determined by multiplying percent positive GFP and GFP median fluorescence values.

recombinant WT VCP [4] = target: T1, recombinant WT VCP; test: MESG-PNP (EnzCheck) phosphate release ATPase assay, WT VCP; assay type: biochemical; details: for ATPase activity v0/ET: 25 μM compound, replicate experiments
Method: (§4) All other experiments were performed using the EnzCheck phosphatase assay kit (Molecular Probes). ATPase activity was measured in a 96-well flat bottom plate (Thermo Fisher Scientific). 50 nM VCP was incubated in 100 μL ATPase buffer with 2% DMSO with 25 μM compound and various ATP concentrations. The absorbance at 360 ± 5 nm was measured for more than 15 minutes at 25°C. Phosphate release was quantified based on a phosphate standard curve performed on the same plate. Initial enzyme velocity was determined by fitting the linear portion of the data to a linear regression model.
as §3

luciferase = test: Luciferase counter assay: Kinase-Glo with 62.5 μM ATP without recombinant VCP; assay type: biochemical; details: for measured ATP consumed (nmol) without VCP: replicate values
Method: as §2
(A-D) Measured ATP as determined by a Kinase-Glo assay of 62.5μM ATP in the presence of increasing concentrations of compound without recombinant VCP present. (for all panels: n=3 with 4 technical replicates per experiment, points are expressed as beta ± SE, linear mixed effects model, P>0.05 for each […]
as §1

R159H VCP = target: T2, R159H VCP (Mus musculus, UniProt Q01853, R159H); test: MESG-PNP ATPase assay, recombinant R159H VCP; assay type: biochemical; details: VCP Mutation R159H; replicate values
T2 construct: in the full-length recombinant VCP; His (N); made in house; host or cells: Escherichia coli BL21-CodonPlus (DE3)-RIL
T2 sequence (Q01853 whole entry R159H): as the sequence (Q01853 whole entry) above, with R159H counted along it
Method: as §4
(§5) Figure S8. VCP activators variable effect on ATPase activity of MSP associated mutations in recombinant VCP. ATPase activity of 50 nM recombinant VCP protein was measured using an MESG-PNP assay upon treatment with 25 μM compound versus 2% DMSO control at 1mM ATP for WT (also shown in Fig. 5c), A232E, R155H, and R159H (n=3 with 3 technical replicated per experiment; points are expressed as beta ± SE, linear effects model: *P<0.05,**P<0.01; ***P<0.001; ****P<0.0001).

WT VCP + Ufd1/Nploc4 = target: T3, WT VCP + Ufd1/Nploc4 (Mus musculus, UniProt Q01853); test: Kinase-Glo ATPase assay, WT VCP with UFD1/NPLOC4 (UN); assay type: biochemical; details: for ATP consumed: WT VCP with UN
T3 construct: in the full-length recombinant VCP; His (N); made in house; host or cells: E. coli (VCP: BL21-CodonPlus (DE3)-RIL; UFD1 and NPLOC4: E. coli (DE3), purified by the MD Anderson core)
T3 sequence (Q01853 whole entry): as the sequence (Q01853 whole entry) above
T3 sequence (Q92890 whole entry partner): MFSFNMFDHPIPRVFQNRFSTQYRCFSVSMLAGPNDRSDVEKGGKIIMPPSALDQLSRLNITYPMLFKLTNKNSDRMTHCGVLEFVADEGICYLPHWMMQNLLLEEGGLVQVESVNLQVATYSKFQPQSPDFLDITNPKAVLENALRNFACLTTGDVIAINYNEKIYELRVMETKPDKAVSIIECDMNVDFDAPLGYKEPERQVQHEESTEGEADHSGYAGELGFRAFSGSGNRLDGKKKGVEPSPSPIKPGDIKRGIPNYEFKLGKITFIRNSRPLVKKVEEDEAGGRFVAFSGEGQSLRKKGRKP
T3 sequence (Q8TAT6 whole entry partner): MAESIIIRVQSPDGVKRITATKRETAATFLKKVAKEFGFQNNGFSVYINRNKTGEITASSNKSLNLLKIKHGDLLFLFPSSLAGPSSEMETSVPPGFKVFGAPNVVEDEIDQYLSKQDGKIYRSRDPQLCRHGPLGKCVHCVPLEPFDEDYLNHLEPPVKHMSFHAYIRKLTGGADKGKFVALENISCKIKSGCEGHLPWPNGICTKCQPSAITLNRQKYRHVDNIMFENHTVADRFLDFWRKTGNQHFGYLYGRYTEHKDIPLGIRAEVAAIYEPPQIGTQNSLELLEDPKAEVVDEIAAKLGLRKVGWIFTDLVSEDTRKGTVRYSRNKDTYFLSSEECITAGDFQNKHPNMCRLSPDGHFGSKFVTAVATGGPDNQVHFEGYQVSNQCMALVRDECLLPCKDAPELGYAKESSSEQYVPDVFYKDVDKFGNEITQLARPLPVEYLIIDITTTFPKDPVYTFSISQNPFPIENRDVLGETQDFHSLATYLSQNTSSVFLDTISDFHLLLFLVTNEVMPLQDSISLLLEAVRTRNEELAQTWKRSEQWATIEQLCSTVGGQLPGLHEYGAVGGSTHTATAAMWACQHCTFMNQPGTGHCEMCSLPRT
Method: as §2, §3

R155H VCP = target: T4, R155H VCP (Mus musculus, UniProt Q01853, R155H); test: MESG-PNP ATPase assay, recombinant R155H VCP; assay type: biochemical; details: VCP Mutation R155H; replicate values
T4 construct: in the full-length recombinant VCP; His (N); made in house; host or cells: Escherichia coli BL21-CodonPlus (DE3)-RIL
T4 sequence (Q01853 whole entry R155H): as the sequence (Q01853 whole entry) above, with R155H counted along it
Method: as §4, §5

A232E VCP = target: T5, A232E VCP (Mus musculus, UniProt Q01853, A232E); test: MESG-PNP ATPase assay, recombinant A232E VCP; assay type: biochemical; details: VCP Mutation A232E; replicate values
T5 construct: in the full-length recombinant VCP; His (N); made in house; host or cells: Escherichia coli BL21-CodonPlus (DE3)-RIL
T5 sequence (Q01853 whole entry A232E): as the sequence (Q01853 whole entry) above, with A232E counted along it
Method: as §4, §5

## CC[C@H](C)[C@H](NC(=O)[C@H]([C@@H](C)CC)N(C)C(C)=O)C(=O)N[C@H](C(=O)N[C@@H](CC(C)C)C(=O)[C@@]1(C)CO1)[C@@H](C)O [epoxomicin]
[1]
  TDP-4FL inclusion size and morphology upon proteasome inhibition: generating larger TDP-4FL inclusions

## Clc1ccc2[nH]c3c(N4CCC5(CC4)OCCO5)ncnc3c2c1 [UP158]
Recombinant WT VCP [2]; EC50 (μM) (95% CI), WT VCP without UN, 50 nM VCP, 62.5 μM ATP, 2% DMSO
  EC50: 2.41 µM
Recombinant WT VCP [2]; 0.78 μM compound
  ATP consumed: 1.347 nmol and 0.994 nmol and 1.148 nmol
Recombinant WT VCP [2]; 1.56 μM compound
  ATP consumed: 1.354 nmol and 1.059 nmol and 1.210 nmol
Recombinant WT VCP [2]; 3.13 μM compound
  ATP consumed: 1.498 nmol and 1.151 nmol and 1.481 nmol
Recombinant WT VCP [2]; 6.25 μM compound
  ATP consumed: 1.483 nmol and 1.304 nmol and 1.494 nmol
Recombinant WT VCP [2]; 12.5 μM compound
  ATP consumed: 1.656 nmol and 1.339 nmol and 1.428 nmol
Recombinant WT VCP [2]; 25 μM compound
  ATP consumed: 1.637 nmol and 1.369 nmol and 1.624 nmol
Recombinant WT VCP [2]; 50 μM compound
  ATP consumed: 1.715 nmol and 1.360 nmol and 1.703 nmol
Recombinant WT VCP [2]; 100 μM compound
  ATP consumed: 1.794 nmol and 1.361 nmol and 1.605 nmol
Recombinant WT VCP [2]; in vitro validation of 106 screen hits
  recombinant WT VCP ATPase activity: significantly increased
Recombinant WT VCP [2]; maximum, WT VCP without UN
  increase of VCP activity: 50%
[3]; 5μM compound with CHX
  Integrated Fluorescence WT (Normalized to CHX): 0.937 and 0.971 and 1.133 and 0.982 and 1.082 and 0.863
[3]; 20μM compound with CHX
  Integrated Fluorescence WT (Normalized to CHX): 1.023 and 1.038 and 1.143 and 1.051 and 0.869 and 0.804
[3]; MG132, then CHX with 5 or 20 μM activator
  clearance of GFP-TDP-4FL aggregates (integrated fluorescence): did not have a significant effect
Recombinant WT VCP [4]; 25 μM activator
  kcat (nmol Pi / nmol VCP / s) (95% CI): 0.356 (0.320, 0.396) nmol Pi / nmol VCP / s
Recombinant WT VCP [4]; 25 μM activator, versus DMSO
  increase in kcat: more than 50%
Recombinant WT VCP [4]; [ATP] 62.5 μM
  ATPase activity v0/ET: 0.191 nmol Pi / nmol VCP / s and 0.186 nmol Pi / nmol VCP / s and 0.163 nmol Pi / nmol VCP / s
Recombinant WT VCP [4]; [ATP] 125 μM
  ATPase activity v0/ET: 0.237 nmol Pi / nmol VCP / s and 0.241 nmol Pi / nmol VCP / s and 0.210 nmol Pi / nmol VCP / s
Recombinant WT VCP [4]; [ATP] 250 μM
  ATPase activity v0/ET: 0.277 nmol Pi / nmol VCP / s and 0.260 nmol Pi / nmol VCP / s and 0.266 nmol Pi / nmol VCP / s
Recombinant WT VCP [4]; [ATP] 500 μM
  ATPase activity v0/ET: 0.330 nmol Pi / nmol VCP / s and 0.296 nmol Pi / nmol VCP / s and 0.298 nmol Pi / nmol VCP / s
Recombinant WT VCP [4]; [ATP] 1000 μM
  ATPase activity v0/ET: 0.372 nmol Pi / nmol VCP / s and 0.331 nmol Pi / nmol VCP / s and 0.333 nmol Pi / nmol VCP / s
luciferase; 62.5 μM ATP, increasing concentrations of compound
  luciferase activity (measured ATP without VCP): did not inhibit luciferase activity
luciferase; compound 6.25 μM
  measured ATP consumed (nmol) without VCP: 3.401 nmol and 3.236 nmol and 3.539 nmol and 3.366 nmol and 3.357 nmol and 3.469 nmol and 3.543 nmol and 3.577 nmol and 3.421 nmol and 3.118 nmol and 3.388 nmol
luciferase; compound 12.5 μM
  measured ATP consumed (nmol) without VCP: 3.307 nmol and 3.430 nmol and 3.284 nmol and 3.618 nmol and 3.378 nmol and 3.515 nmol and 3.417 nmol and 3.480 nmol and 3.503 nmol and 3.589 nmol and 3.525 nmol and 3.323 nmol
luciferase; compound 25 μM
  measured ATP consumed (nmol) without VCP: 3.304 nmol and 3.386 nmol and 3.409 nmol and 3.378 nmol and 3.414 nmol and 3.361 nmol and 3.370 nmol and 3.512 nmol and 3.476 nmol and 3.518 nmol and 3.523 nmol and 3.257 nmol
luciferase; compound 50 μM
  measured ATP consumed (nmol) without VCP: 3.338 nmol and 3.481 nmol and 3.508 nmol and 3.447 nmol and 3.274 nmol and 3.450 nmol and 3.266 nmol and 3.477 nmol and 3.478 nmol and 3.313 nmol and 3.466 nmol and 3.330 nmol
luciferase; compound 100 μM
  measured ATP consumed (nmol) without VCP: 3.162 nmol and 3.374 nmol and 3.402 nmol and 3.401 nmol and 3.130 nmol and 3.262 nmol and 3.295 nmol and 3.438 nmol and 3.458 nmol and 3.582 nmol and 3.728 nmol and 3.332 nmol
R159H VCP
  ATPase activity, nmol Pi / nmol VCP / s: 1.332 nmol Pi / nmol VCP / s and 1.432 nmol Pi / nmol VCP / s and 1.240 nmol Pi / nmol VCP / s
WT VCP + Ufd1/Nploc4
  change in EC50 with UN compared to without UN: significantly increased
  change in maximum percent activity with UN compared to without UN: stayed the same
WT VCP + Ufd1/Nploc4; WT VCP + Ufd1/Nploc4, 1:1 molar ratio
  EC50: 14.3 µM
WT VCP + Ufd1/Nploc4; 1.56 μM compound
  ATP consumed: 1.283 nmol and 1.271 nmol and 1.261 nmol
WT VCP + Ufd1/Nploc4; 3.13 μM compound
  ATP consumed: 1.368 nmol and 1.194 nmol and 1.381 nmol
WT VCP + Ufd1/Nploc4; 6.25 μM compound
  ATP consumed: 1.593 nmol and 1.386 nmol and 1.366 nmol
WT VCP + Ufd1/Nploc4; 12.5 μM compound
  ATP consumed: 1.674 nmol and 1.527 nmol and 1.645 nmol
WT VCP + Ufd1/Nploc4; 25 μM compound
  ATP consumed: 1.721 nmol and 1.705 nmol and 1.784 nmol
WT VCP + Ufd1/Nploc4; 50 μM compound
  ATP consumed: 1.865 nmol and 1.744 nmol and 1.853 nmol
WT VCP + Ufd1/Nploc4; 100 μM compound
  ATP consumed: 1.867 nmol and 1.844 nmol and 1.895 nmol
R155H VCP
  ATPase activity, nmol Pi / nmol VCP / s: 1.189 nmol Pi / nmol VCP / s and 1.361 nmol Pi / nmol VCP / s and 1.473 nmol Pi / nmol VCP / s
A232E VCP
  ATPase activity, nmol Pi / nmol VCP / s: 1.493 nmol Pi / nmol VCP / s and 1.756 nmol Pi / nmol VCP / s and 2.037 nmol Pi / nmol VCP / s

## CC(C)C[C@H](NC(=O)CNC(=O)c1cc(Cl)ccc1Cl)B(O)O [ixazomib]
[1]
  TDP-4FL inclusion size and morphology upon proteasome inhibition: generating larger TDP-4FL inclusions

## Cc1cc2c(C(N)=O)cccc2n1-c1nc2c(c(NCc3ccccc3)n1)COCC2 [CB5083]
[1]
  TDP-4FL aggregate formation: no effect on TDP-4FL aggregate formation
  TDP-4FL inclusion morphology after recovery: residual irregularly shaped intranuclear TDP-4FL aggregates

— PMC11257039, “VCP activator reverses nuclear proteostasis defects and enhances TDP-43 aggregate clearance in multisystem proteinopathy models” (The Journal of Clinical Investigation, 2024)
